The text below walks through data of patent publication US7638554B2, “Flavanoids as chemotherapeutic, chemopreventive, and antiangiogenic agents” (SRI International, priority 2002, dated 2009).

Series [1] has as its system MCF-7 (ER+) breast cancer cell line. Description: Growth inhibition assay, MTT, MCF-7 breast cancer cells. In kind it is cell-based, human. The conditions noted are these: Homo sapiens. As for the experimental part: (§1) Compounds of the invention were tested for their ability to inhibit growth in two breast cancer cell lines, MCF-7 (ER+) and MDA-MB-231 (ER−).
(§2) The growth inhibition assays were conducted using routine methods. Briefly, the cells were seeded in 24-well plates at a density of 2000 cells per well in 200 μL of […] growth medium. To each well was added 10 μL of DMSO containing the dissolved test compound; final DMSO concentration in each well was not more than 0.5%. Each test compound was assayed at concentrations of 0.4, 2, 10, and 50 μM. The plates were incubated for eight days, with the media and test solutions replaced every third day. On Day 8, the viable cells were measured by the MTT assay, as described in Mosmann et al. (1983), “Rapid Colorimetric Assay for Cellular Growth and Survival: Application to Proliferation and Cytotoxicity,” J. Immunol. Method. 65:55-63. The optical density at 575 nm of each test well was measured and compared to that for control wells, and the data used to calculate the percentage of growth inhibition at different concentrations. The IC50 value (the concentration of growth inhibitor that results in 50% growth inhibition of the cells in culture relative to control cells not exposed to any growth inhibitor) was determined by plotting dose-response curves.
(§3) The calculated IC50 values are set forth in Table 1, with the results representing the average of at least two experiments conducted for each compound at each of the four concentrations.

Series [2] concerns ovarian cancer cell line IGROV1. Description: Growth inhibition, sulforhodamine-based protein determination, IGROV1. In kind it is cell-based. The settings on record: Homo sapiens, IGROV-1, 144 h; continuous exposure six days. As for the experimental part:
(§4) The novel compound SR 13179 was assayed for its ability to inhibit growth in several cancer cell lines. The cell lines studied included breast cancer cell line MCF-7 (ER+); prostate cancer cell lines LNCaP, PC3, and DU145; lung cancer cell line A427; ovarian cancer cell lines IGROV1, OVCAR-3, OVCAR-4, OVCAR-5, OVCAR-8, and SK-OV-3; and colon cancer cell lines COLO 205, HCC-2998, HCT-116, HCT-15, HT29, KM12, AND SW-620.
(§5) The growth assays for the breast cancer cell lines were conducted according to the method of Example 16. For the other cell lines, each assay was conducted with continuous exposure to the test compound at four log concentrations for six days, using a sulforhodamine-based protein determination to measure growth inhibition.

The next series has as its system TIMP-1. Description: TIMP-1 protein expression, MCF-10-CA1a cells. In kind it is cell-based, human. The text has this: Western Blotting. Proteins were separated by gel electrophoresis using 4-12% pre-cast SDS-polyacrylamide gels (Invitrogen, Carlsbad, Calif.) and then electrophoretically transferred onto Hybond™-P membrane (Amersham Biosciences, Piscataway, N.J.). Blots were probed with specific antibodies (Santa Cruz Biotechnology, Inc). The ECL Plus Western Blotting Detection System of Amersham Biosciences (Piscataway, N.J.) and the procedure recommended by the manufacturer was used for the detection of antigens. Protein bands were quantified by analyzing the images obtained using an Alphaimager™ S-3400 (Alpha Innotech Corp., San Leandro, Calif.).
The effects of SR 13179 on the protein expression of TIMP-1, TIMP-2, and membrane-type 1 MMP (MT1-MMP) were studied. SR13179 induced the protein expression of TIMP-2 in a dose- and time-dependent manner. MCF-10-CA1a cells were treated with SR 13179 at 1, 3, or 5 μM concentrations for 48 h, or, alternatively, with […] SR 13179 for 8, 24, or 48 h. Cells were lysed and subjected to Western blotting.
The effect of SR13179 on the extracellular levels of TIMP-2 as well as MMP-2 was also investigated. Treatment of MCF-10CA1a cells with SR13179 at 5 μM concentration caused 5- to 8-fold increase in the secreted level of TIMP-2 and a 2-fold decrease in the extracellular level of MMP-2. […]

Series [3] deals with MDA-MB-231 (ER−) breast cancer cell line. Description: Growth inhibition assay, MTT, MDA-MB-231 breast cancer cells. The conditions noted are these: Homo sapiens, MDA-MB-231, 192 h, eight days, average of at least two experiments. The format is cell-based, human. As for the experimental part:
as §1, §2, §3

The test system of series [4] is prostate cancer cell line DU145. Description: Growth inhibition, sulforhodamine-based protein determination, DU145. The format is cell-based. The conditions noted are these: Homo sapiens, DU-145, 144 h; continuous exposure six days. As for the experimental part:
as §4, §5

For series [5], the system named is MCF-7 human breast cancer xenografts. Description: MCF-7 human breast cancer xenografts in nude mice, i.p. administration. The format is in vivo. As for the experimental part: To evaluate the in vivo activity of novel compound SR 13179 against breast cancer, the compound was administered to female BALB/c nude mice that had been implanted with breast cancer cells. In this experiment, MCF-7 human breast cancer cells (2.5×10^6 cells) were implanted subcutaneously in both flanks of each mouse. Two days after cell inoculation, one estradiol pellet (10 μg/pellet) was implanted into each mouse by subcutaneous implantation. When tumor volumes reached 100 mm^3 (Day 0), SR 13179 was administered at a dose of 12.5 mg/kg, 25 mg/kg and 50 mg/kg intraperitoneally (i.p.) once a day, as a suspension in 0.5% hydroxypropyl cellulose. Body weights and tumor volumes were measured twice a week for 14 days. The tumor volume was expressed as % of initial tumor size which was designated as 100% on Day 0.
In general terms: Xenograft models place foreign cells or tissue in a host animal.

Series [6] has as its system human umbilical vein endothelial cells (HUVECs). Description: Growth inhibition of HUVECs, MTT assay. In kind it is cell-based. The conditions noted are these: HUVEC, read-out: concentration to inhibit growth by 50%, HUVECs. As for the experimental part: Angiogenesis depends upon the proliferation of vascular endothelial cells. To determine the potential antiangiogenic activity of SR 13179, the compound's ability to inhibit the proliferation of these cells was assayed. Apoptosis was then investigated as a possible mechanism for the antiproliferative activity.
Human vascular endothelial cells taken from umbilical veins (HUVECs) were obtained from Clonetics Corporation (San Diego, Calif.). Growth inhibition was measured quantitatively using the MTT assay as described by Mosmann et al., cited in the previous example.
The concentration to inhibit growth by 50% was 0.37 μM.

Series [7] concerns chick chorioallantoic membrane (CAM) blood vessels. Description: Chick chorioallantoic membrane (CAM) assay for antiangiogenic activity. The format is in vivo. As for the experimental part:
The CAM assay, which is widely applied to evaluate in vivo antiangiogenic activity, was utilized with SR 13179.
The methods used were those of Folkman (Auerbach et al. (1974) Dev. Biol. 41:391-394), with some modifications. The test compound was dissolved in saline and methylcellulose, and the embryos dosed once daily for 12-14 days. Blood vessel density of each embryo was measured as the quantitative endpoint. The known antiangiogenic compound medroxyprogesterone acetate (MPA) was used as a positive control.

Setting [8] is: 12.5, 25 and 50 mg/kg i.p. once a day.
[9] abbreviates: 11.1 μg/CAM, once daily for 12-14 days.

Like-named read-outs stand apart in the source and are kept apart here.

Take `COc1cc(C2CC(O)c3ccc4ccccc4c3O2)cc(OC)c1OC` (centres unmarked) [SR 13179, 2-(3,4,5-trimethoxyphenyl)-3,4-dihydro-2H-benzo[h]chromen-4-ol]: the IC50 in series [1] (MCF7, 192 h, MTT assay, eight days, average of at least two experiments, read-out: GROWTH INHIBITION (IC50) MCF-7 (ER+)) worked out at 1410 nM; in series [1] (MCF7, Table 2, method of Example 16, read-out: IC50, growth inhibition, MCF-7 (ER+)) it was 1140 nM; in series [2], 281 nM; in series [3] it was 3010 nM; in series [4], 638 nM; in series [6] it was 370 nM. Also, the TIMP-1 protein levels entry with TIMP-1 is “no significant effect”. For the same molecule, in series [5] (12.5 mg/kg/day i.p., 14 days), the tumor growth result was “complete suppression of tumor growth”. The “tumor size compared to the size at Day 0” value in series [5] (50 mg/kg/day i.p., 14 days) is recorded as “slight regression in tumor size”. Besides, in series [5] (setting [8]), the “body weights of the treated mice” value is recorded as “unaffected”. Besides, in series [5] (setting [8]), the overt toxicity entry is “no overt toxicity was observed”. For the same molecule, the “Blood vessel density score” value in series [7] (setting [9]) came out at 4.6 ± 2.2. Further, the “Percent inhibition relative to control” value in series [7] (setting [9]) came to 57%. The “in vivo antiangiogenic activity compared with MPA” value in series [7] (CAM assay) was “equivalent to that of MPA”.
